Measured values from patent US20120328569A1, “INHIBITORS OF HEPATITIS C VIRUS NS5B POLYMERASE” (priority 2010, published 2012).

What follows are compounds tested on HCV genotype 1b replicon (assay: HCV replicon assay, cell ELISA with antibody to replicon-encoded NS3/4A (genotype 1b replicon)). Conditions: Hepatitis C virus, 96 h, read-out: 1b IC50(nM), HCV genotype 1b replicon; 96 hours incubation; NS3/4A cell ELISA.
Assay type: cell-based, hepatitis C virus
How it was run: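 An ELISA on lysed cells, using an antibody against NS3/4A protease, served as the proxy for replicon RNA. Cells had first been exposed for 96 h to serially diluted compound in G418-free conditions. Percent of DMSO control was fitted with a four-parameter function to give IC50.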

`CNC(=O)c1c(-c2ccc(F)cc2)oc2cc(N(C)S(C)(=O)=O)c(-c3ccc(OC)c(-c4nc5c(CC#N)cccc5[nH]4)c3)cc12` [Example 427] and `CNC(=O)c1c(-c2ccc(F)cc2)oc2cc(N(C)S(C)(=O)=O)c(-c3ccc(OC)c(-c4nc5c(C(=O)NC)cccc5o4)c3)cc12` [Example 637] are within 1.5-fold of each other in IC50: 4.35 nM for the first, 4.03 nM for the second.

`CNC(=O)c1c(-c2ccc(F)cc2)oc2cc(N(Cc3cccnc3)S(C)(=O)=O)c(-c3ccc(OC)c(-c4nc5c(F)cc(F)cc5o4)c3)cc12` [Example 709] and `CNC(=O)c1c(-c2ccc(F)cc2)oc2cc(N(C3CC(C#N)C3)S(C)(=O)=O)c(-c3ccc(OC)c(-c4nc5c(F)cc(F)cc5o4)c3)cc12` (centres unmarked) [Example 742] are within 1.5-fold of each other in IC50: 6.05 nM for the first, 4.57 nM for the second.

Going from `CNC(=O)c1c(-c2ccc(F)cc2)oc2cc(N(C(CF)CF)S(C)(=O)=O)c(-c3ccc(OC)c(-c4nc5c(F)cccc5o4)c3)cc12` [Example 807] to `CNC(=O)c1c(-c2ccc(F)cc2)oc2cc(N(CC(O)CCF)S(C)(=O)=O)c(-c3ccc(OC)c(-c4nc5c(F)cccc5o4)c3)cc12` (centres unmarked) [Example 815], the IC50 falls from 46.7 nM to 11.8 nM (4-fold). The second is the more potent here.

Compared with `CN(c1cc2oc(-c3ccc(F)cc3)c(C(=O)Nc3cccnc3)c2cc1-c1cccc(-c2cc3ccccc3[nH]2)c1)S(C)(=O)=O` [Example 851, 5-(3-(1H-indol-2-yl)phenyl)-2-(4-fluorophenyl)-6-(N-methylmethylsulfonamido)-N-(pyridin-3-yl)benzofuran-3-carboxamide], `CNC(=O)c1c(-c2ccc(F)cc2)oc2cc(N(C)S(C)(=O)=O)c(-c3cccc(-c4cc5c(F)cc(F)cc5s4)c3)cc12` [Example 685] is 29-fold lower in IC50: 350 nM for the first, 12 nM for the second. The second is the more potent here.

Compared with `CNC(=O)c1cc(-c2nc3c(F)cccc3o2)cc(-c2cc3c(C(=O)NC)c(-c4ccc(F)cc4)oc3cc2N(C)S(C)(=O)=O)c1` [Example 654], `CNC(=O)c1c(-c2ccc(F)cc2)oc2cc(N(C)S(C)(=O)=O)c(-c3csc(-c4nc5c(F)cccc5o4)c3)cc12` [Example 504] is 2.4-fold lower in IC50: 3.65 nM for the first, 1.53 nM for the second.

Compared with `CNC(=O)c1c(-c2ccc(F)cc2)oc2cc(N(CC(O)Cn3ccnc3)S(C)(=O)=O)c(-c3ccc(OC)c(-c4nc5c(F)cccc5o4)c3)cc12` (centres unmarked) [Example 825], `CNC(=O)c1c(-c2ccc(F)cc2)oc2cc(N(CC(F)F)S(C)(=O)=O)c(-c3ccc(OC)c(-c4nc5ncccc5o4)c3)cc12` [Example 877] is 1.7-fold lower in IC50: 8.88 nM for the first, 5.1 nM for the second. The second is the more potent here.

`CNC(=O)c1c(-c2ccc(F)cc2)oc2cc(N(C)S(C)(=O)=O)c(-c3ccc(C(=O)N(C)C)c(-c4nc5c(F)cccc5o4)c3)cc12` [Example 655] and `CNC(=O)c1c(-c2ccc(F)cc2)oc2cc(N(CC(F)F)S(C)(=O)=O)c(-c3cc(F)cc(-c4nc5ncccc5o4)c3)cc12` [Example 876] are within 1.5-fold of each other in IC50: 2.52 nM for the first, 3.5 nM for the second.

Same assay, conditions: Hepatitis C virus, 96 h, read-out: Replicon 1b IC50 (nM), HCV genotype 1b replicon cells, 96 hours incubation, NS3/4A ELISA readout

Compared with `CNC(=O)c1c(-c2ccc(F)cc2)oc2cc(N(C)C(C)c3ccccc3)c(-c3ccccc3)cc12` (centres unmarked) [Example 71, 2-(4-fluorophenyl)-N-methyl-6-[methyl(1-phenylethyl)amino]-5-phenyl-1-benzofuran-3-carboxamide], `CNC(=O)c1c(-c2ccc(F)cc2)oc2cc(N(CCN(C)c3ccccc3)S(C)(=O)=O)c(-c3ccccc3)cc12` [Example 3, 2-(4-fluorophenyl)-N-methyl-6-[{2-[methyl(phenyl)amino]ethyl} (methylsulfonyl)amino]-5-phenyl-1-benzofuran-3-carboxamide] is lower in IC50: over 2500 nM for the first, 80 nM for the second.

Compared with `CNC(=O)c1c(-c2ccc(F)cc2)oc2cc(N(C)S(C)(=O)=O)c(-c3cccc(CNS(=O)(=O)c4ccccc4)c3)cc12` [Example 103, 2-(4-fluorophenyl)-N-methyl-6-[methyl(methylsulfonyl)amino]-5-(3-{[(phenylsulfonyl)amino]methyl}phenyl)-1-benzofuran-3-carboxamide], `CNC(=O)c1c(-c2ccc(F)cc2)oc2cc(N(C)S(C)(=O)=O)c(-c3ccc(CNS(C)(=O)=O)cc3)cc12` [Example 104] is higher in IC50: under 8 nM for the first, 164 nM for the second.

`CNC(=O)c1c(-c2ccc(F)cc2)oc2cc(N(C)S(C)(=O)=O)c(-c3ccc(F)cc3)cc12` [Example 87, 2,5-bis(4-fluorophenyl)-N-methyl-6-[methyl (methylsulfonyl)amino]-1-benzofuran-3-carboxamide] and `CNC(=O)c1c(-c2ccc(F)cc2)oc2cc(N(C)S(C)(=O)=O)c(-c3ccc(C#N)cc3)cc12` [Example 85, 5-(4-cyanophenyl)-2-(4-fluorophenyl)-N-methyl-6-[methyl (methylsulfonyl)amino]-1-benzofuran-3-carboxamide] are within 1.5-fold of each other in IC50: 39 nM for the first, 43 nM for the second.

Going from `CONC(=O)c1c(-c2ccc(F)cc2)oc2cc(N(C)S(C)(=O)=O)c(-c3ccc(OC)cc3)cc12` [Example 98, 2-(4-fluorophenyl)-N-methoxy-5-(4-methoxyphenyl)-6-[methyl (methylsulfonyl)amino]-1-benzofuran-3-carboxamide] to `CNC(=O)c1c(-c2ccc(F)cc2)oc2cc(N(C)S(C)(=O)=O)c(-c3ccccc3OC)cc12` [Example 79, 2-(4-fluorophenyl)-5-(2-methoxyphenyl)-N-methyl-6-[methyl (methylsulfonyl)amino]-1-benzofuran-3-carboxamide], the IC50 rises from 72 nM to 320 nM (4.4-fold).

Compared with `CNC(=O)c1c(-c2ccc(F)cc2)oc2cc(N(C)S(C)(=O)=O)c(-c3cc(F)c(OC)c(-c4nc5ccccc5o4)c3)cc12` [Example 181], `CNC(=O)c1c(-c2ccc(F)cc2)oc2cc(N(C)S(C)(=O)=O)c(-c3cc(OC)c(OC)c(-c4nc5ccccc5o4)c3)cc12` [Example 182] is 2.5-fold lower in IC50: 5.7 nM for the first, 2.3 nM for the second. The second is the more potent here.

Going from `CNC(=O)c1c(-c2ccc(F)cc2)oc2cc(N(C)S(C)(=O)=O)c(-c3ccc(OC)c(-c4cc5cccc(F)c5[nH]4)c3)cc12` [Compound 374] to `CNC(=O)c1c(-c2ccc(F)cc2)oc2cc(N(C)S(C)(=O)=O)c(-c3ccc(OC)c(-c4nc5ccc(F)cc5o4)c3)cc12` [Example 185], the IC50 falls from 52.4 nM to 2.2 nM (24-fold).

Going from `CNC(=O)c1c(-c2ccc(F)cc2)oc2cc(N(C)S(C)(=O)=O)c(-c3ccc(F)c(-c4nc5nccnc5[nH]4)c3)cc12` [Example 337] to `CNC(=O)c1c(-c2ccc(F)cc2)oc2cc(N(C)S(C)(=O)=O)c(-c3ccc(F)c(-c4nc5cc(F)ccc5[nH]4)c3)cc12` [Example 301], the IC50 falls from 7.8 nM to 1.9 nM (4.1-fold). The second is the more potent here.

Compared with `CNC(=O)c1c(-c2ccc(F)cc2)oc2cc(N(CC3CCC3)S(C)(=O)=O)c(-c3ccccc3)cc12` [Example 21, 6-[(cyclobutylmethyl) (methylsulfonyl)amino]-2-(4-fluorophenyl)-N-methyl-5-phenyl-1-benzofuran-3-carboxamide], `C=CCN(c1cc2oc(-c3ccc(F)cc3)c(C(=O)NC)c2cc1-c1ccccc1)S(C)(=O)=O` [Example 35, 2-(4-fluorophenyl)-N-methyl-6-[(methylsulfonyl) (prop-2-en-1-yl)amino]-5-phenyl-1-benzofuran-3-carboxamide] is 16-fold lower in IC50: 115 nM for the first, 7 nM for the second. The second is the more potent here.

Going from `CNC(=O)c1c(-c2ccc(F)cc2)oc2cc(N(C)S(C)(=O)=O)c(-c3cccc(-c4nnn(CC(=O)O)n4)c3)cc12` [Example 140, [5-(3-{2-(4-fluorophenyl)-3-(methylcarbamoyl)-6-[methyl (methylsulfonyl)amino]-1-benzofuran-5-yl}phenyl)-2H-tetrazol-2-yl]acetic acid] to `CNC(=O)c1c(-c2ccc(F)cc2)oc2cc(N(C)S(C)(=O)=O)c(-c3cccc(-c4nc5ccccc5o4)c3)cc12` [Example 156], the IC50 falls from 1190 nM to 6.9 nM (170-fold). The second is the more potent here.

Compared with `CNC(=O)c1c(-c2ccc(F)cc2)oc2cc(N(CCCC#N)S(C)(=O)=O)c(-c3cccc(-c4nc5ncccc5o4)c3)cc12` [Compound 393], `CNC(=O)c1c(-c2ccc(F)cc2)oc2cc(N(C)S(C)(=O)=O)c(-c3cccc(-c4nc5cccc(F)c5o4)c3)cc12` [Example 160] is 5.8-fold higher in IC50: 1.2 nM for the first, 7 nM for the second. The first is the more potent here.

Going from `CNC(=O)c1c(-c2ccc(F)cc2)oc2cc(N(C)S(C)(=O)=O)c(-c3cccc(-c4cc5cccc(Cl)c5[nH]4)c3)cc12` [Compound 371] to `CNC(=O)c1c(-c2ccc(F)cc2)oc2cc(N(C)S(C)(=O)=O)c(-c3cccc(-c4nc5cccc(Cl)c5o4)c3)cc12` [Example 172], the IC50 rises from 5.8 nM to 27 nM (4.7-fold). The first is the more potent here.

Going from `CNC(=O)c1c(-c2ccc(F)cc2)oc2cc(N(C)S(C)(=O)=O)c(-c3cccc(-c4nc5ccccc5s4)c3)cc12` [Example 135, 5-(3-(benzo[d]thiazol-2-yl)phenyl)-2-(4-fluorophenyl)-N-methyl-6-(N-methylmethylsulfonamido)-1-benzofuran-3-carboxamide] to `CNC(=O)c1c(-c2ccc(F)cc2)oc2cc(N(C)S(C)(=O)=O)c(-c3cccc(-c4nc5ccc(CN(C)C)cc5s4)c3)cc12` [Example 298, 5-(3-(6-((dimethylamino)methyl)benzo[d]thiazol-2-yl)phenyl)-2-(4-fluorophenyl)-N-methyl-6-(N-methylmethylsulfonamido)benzofuran-3-carboxamide], the IC50 rises from 4 nM to 6 nM (1.5-fold). The first is the more potent here.

Going from `CNC(=O)c1c(-c2ccc(F)cc2)oc2cc(N(C)S(C)(=O)=O)c(-c3cc(F)c(OC)c(-c4nc5cccnc5o4)c3)cc12` [Example 233] to `CNC(=O)c1c(-c2ccc(F)cc2)oc2cc(N(C)S(C)(=O)=O)c(-c3ccc(OC)c(-c4nc5cc(F)cc(F)c5o4)c3)cc12` [Example 410], the IC50 falls from 2.9 nM to 0.5 nM (5.8-fold). The second is the more potent here.

First: CNC(=O)c1c(-c2ccc(F)cc2)oc2cc(N(C)S(C)(=O)=O)c(-c3cc(F)cc(-c4nc5cccc(C)c5o4)c3)cc12 [Example 167]
Second: CNC(=O)c1c(-c2ccc(F)cc2)oc2cc(N(C)S(C)(=O)=O)c(-c3cccc(-c4nc5cc(Cl)ccc5o4)c3)cc12 [Example 170]
The IC50 of the first is 2-fold higher: 10.4 nM for the first, 5.2 nM for the second.

Compared with `CNC(=O)c1c(-c2ccc(F)cc2)oc2cc(N(C)S(C)(=O)=O)c(-c3cc(-c4nc5cnccc5o4)ccc3F)cc12` [Example 214], `CNC(=O)c1c(-c2ccc(F)cc2)oc2cc(N(C)S(C)(=O)=O)c(-c3cc(OC)cc(-c4nc5cccnc5[nH]4)c3)cc12` [Example 314] is 4.2-fold lower in IC50: 6.3 nM for the first, 1.5 nM for the second. The second is the more potent here.
